The source of these data is patent US10172879B2, “Nanocomplexes for co-delivering a drug and siRNA and uses thereof” (D.R.NANO CO., LTD, priority 2015, dated 2019).

The data set can be described thus: Serum stability assay (50% serum, 37° C., gel electrophoresis). To be noted: 50% serum media at 37° C., 0-24 h; HMplex N/P=4. Format: in vitro ADME, bovine. The protocol: In vitro cytotoxicity studies of HMplexes were performed against normal cells (MRC-5 and NIH-3T3) and cancer cells (MDA-MB-231) using the colorimetric MTT assay. Cells were treated with HMplexes at various concentrations for 4 h and then incubated in a serum-free medium for another 44 h after washing twice with cold PBS (pH 7.4). After washing with PBS, the cells were treated with MTT reagents and the absorbance at 540 nm was measured with a microplate reader (Spectra Max 340, Molecular Devices, Sunnyvale, Calif., USA). The complex stability of HMplexes was evaluated by a heparin polyanion competition assay and a serum stability assay. For the heparin polyanion competition assay, HMplexes containing 1 μg siRNA were incubated with varying amounts of heparin (0-200 μg) for 30 min at room temperature and then subjected to 2% agarose gel electrophoresis. The decomplexed siRNA was detected with SYBR Gold staining. For serum stability studies, HMplexes or naked siRNA were incubated in 50% FBS/PBS (pH 7.4) at 37° C. for predetermined time periods (0-24 h). Aliquots from each sample were analyzed by 2% agarose gel electrophoresis and visualized with SYBR Gold.

d = 2'-deoxy (DNA)

As for “free siRNA: Custom Bcl-2 siRNA (sense Seq ID No. 1-dTdT; antisense Seq ID No. 2-dTdT), uncomplexed (sense GUACAUCCAUUAUAAGCUG; antisense CAGCUUAUAAUGGAUGUAC; RNA, 3' dTdT, backbone not given here)”, the “degradation of siRNA in serum” value was “completely disappeared at 24 h”.
